Experimental data: patent publication US10865216B2, “Tricyclic Gyrase inhibitors” (MERCK SHARP & DOHME CORP., priority 2012, dated 2020)
Read-outs that look alike come from different tables or passages of the source.

How the values were obtained:
[1] = tested on: S. aureus ATCC 13709; experiment: MIC, S. aureus ATCC 13709; type: cell-based; details: for SA MIC: Table 14, R2 is a 5 membered heterocycle; for MIC Sa: S. aureus, Alamar Blue read after overnight incubation at 35° C.; for Sa MIC: Table 10, Sa = S. aureus
[2] = tested on: S. aureus ATCC 13709 + mouse serum; experiment: MIC, SA + serum (S. aureus ATCC 13709, MHCA + mouse serum); type: cell-based; details: Table 14; R2 is a 5 membered heterocycle
[3] = tested on: E. coli ATCC 25922; experiment: MIC, E. coli ATCC 25922; type: cell-based; details: for EC8 MIC: Table 14, R2 is a 5 membered heterocycle, EC8 not defined; for MIC Ec: E. coli, Alamar Blue read after overnight incubation at 35° C.; for Ec MIC: Table 10, Ec = E. coli, strain not stated
[4] = amide bond, BOP, 40.0 °C
[5] = amide bond, BOP/Et3N then EDC, DCM/NMP 1:1, 40.0 °C
[6] = tested on: S. pneumoniae ATCC 51916; experiment: MIC, S. pneumoniae ATCC 51916; type: cell-based; details: Table 10; Spn = S. pneumoniae
[7] = tested on: P. aeruginosa ATCC 15692; experiment: MIC, P. aeruginosa ATCC 15692; type: cell-based; details: Table 10; Pa = P. aeruginosa
[8] = tested on: A. baumannii ATCC 19606; experiment: MIC, A. baumannii ATCC 19606; type: cell-based; details: Table 10; Ab = A. baumannii, strain not stated
[9] = tested on: K. pneumoniae ATCC 700603; experiment: MIC, K. pneumoniae ATCC 700603; type: cell-based; details: Table 10; Kpn = K. pneumoniae
[10] = tested on: Y. pestis CO92 pgm-; type: cell-based; details: Table 10
[11] = tested on: B. thailandensis ATCC E264; experiment: microbe, parasite or virus in culture; type: cell-based
[12] = tested on: F. tularensis holarctica LVS; experiment: microbe, parasite or virus in culture; type: cell-based; details: Table 10; Ft = F. tularensis, strain not stated

Molecule	MIC Sa [1] [µg/mL]	Sa MIC [1] [µg/mL]	Spn MIC [6] [µg/mL]	MIC Ec [3] [µg/mL]	Ec MIC [3] [µg/mL]	Pa MIC [7] [µg/mL]	Ab MIC [8] [µg/mL]	Kpn MIC [9] [µg/mL]	Yp MIC [10] [µg/mL]	Bt MIC [11] [µg/mL]	Ft MIC [12] [µg/mL]	also measured
CNc1cc(F)cc2c1[nH]c1nc(Sc3nc4ccccc4s3)nc(N3C[C@H]4C[C@@H]3C[C@H]4N)c12												SA MIC [1]: 1 µg/mL; SA+ serum MIC [2]: 4 µg/mL; EC8 MIC [3]: 16 µg/mL
CNc1cc(F)cc2c1[nH]c1nc(Sc3nnc(C)s3)nc(N3C[C@H]4C[C@@H]3C[C@H]4N)c12												SA MIC [1]: ≤ 0.5 µg/mL; SA+ serum MIC [2]: ≤ 0.5 µg/mL; EC8 MIC [3]: ≤ 0.5 µg/mL
CNc1cc(F)cc2c1[nH]c1nc(Sc3nc(C(=O)OC)cs3)nc(N3CC4CC(N)C4C3)c12 (centres unmarked)												SA MIC [1]: ≤ 0.5 µg/mL; SA+ serum MIC [2]: 2 µg/mL; EC8 MIC [3]: ≤ 0.5 µg/mL
CNc1cc(F)cc2c1[nH]c1nc(Sc3nc(C(=O)O)cs3)nc(N3CC4CC(N)C4C3)c12 (centres unmarked)												SA MIC [1]: ≤ 0.5 µg/mL; SA+ serum MIC [2]: 2 µg/mL; EC8 MIC [3]: > 16 µg/mL
CNc1cc(F)cc2c1[nH]c1nc(Sc3nc(Br)cs3)nc(N3CC4CC(N)C4C3)c12 (centres unmarked)												SA MIC [1]: ≤ 0.5 µg/mL; SA+ serum MIC [2]: ≤ 0.5 µg/mL; EC8 MIC [3]: ≤ 0.5 µg/mL
CN(C(=O)OC(C)(C)C)c1cc(F)cc2c1[nH]c1nc3nc(c12)NCCCCCCNC(=O)CSc1ncc(cn1)O3												ring closure, yield of all isomers ([4]; from CN(C(=O)OC(C)(C)C)c1cc(F)cc2c1[nH]c1nc(Oc3cnc(SCC(=O)O)nc3)nc(NCCCCCCN)c12, then EDC (Et3N), DCM/NMP, 30.0 mM, 3.0 h): 72%
CN(C(=O)OC(C)(C)C)c1cc(F)cc2c1[nH]c1nc3nc(c12)NCCCCCCNC(=O)c1cncc(c1)O3												ring closure, yield of all isomers ([4]; from CN(C(=O)OC(C)(C)C)c1cc(F)cc2c1[nH]c1nc(Oc3cncc(C(=O)O)c3)nc(NCCCCCCN)c12, then EDC (Et3N), DCM/NMP, 18.5 mM, 3.0 h): 74%
CN(C(=O)OC(C)(C)C)c1cc(F)cc2c1[nH]c1nc3nc(c12)NCCCCNC(=O)CSc1ncc(cn1)O3												ring closure, yield after HPLC ([5]; from CN(C(=O)OC(C)(C)C)c1cc(F)cc2c1[nH]c1nc(Oc3cnc(SCC(=O)O)nc3)nc(NCCCCN)c12, 17-membered ring, 36.5 mM): 34%
CNc1cc(F)cc2c1[nH]c1nc3nc(c12)N([C@H](CN)COCCCN)C(=O)CSc1ncc(cn1)O3												ring closure, yield after HPLC ([5]; from CNc1cc(F)cc2c1[nH]c1nc(Oc3cnc(SCC(=O)O)nc3)nc(N[C@H](CN)COCCCN)c12, 38.5 mM): 57%
CNc1cc(F)cc2c1[nH]c1nc3nc(c12)N1CC(CNC(=O)COc2cc(C#N)cc(c2)O3)C1												ring closure, yield of all isomers ([4]; from CNc1cc(F)cc2c1[nH]c1nc(Oc3cc(C#N)cc(OCC(=O)O)c3)nc(N3CC(CN)C3)c12, EDC (Et3N), DCM/NMP (1:1), 40.0 mM, 2.0 h): 17%
CNc1cc(F)cc2c1[nH]c1nc3nc(c12)N[C@H](CN)COCCCNC(=O)CSc1ncc(cn1)O3												ring closure, yield of all isomers ([4]; from CNc1cc(F)cc2c1[nH]c1nc(Oc3cnc(SCC(=O)O)nc3)nc(N[C@H](CN)COCCCN)c12, then EDC (Et3N), DCM/NMP (1:1), 38.5 mM, 3.0 h): 57%
2-((5-((4-(6-aminohexyl)amino)-8-((tert-butoxycarbonyl)(methyl)amino)-6-fluoro-9H-pyrimido[4,5-b]indol-2-yl)oxy)pyrimidin-2-yl)thio)acetic acid												ring closure, yield after HPLC ([5]; the molecule shown is the open-chain precursor, 19-membered ring, 30.0 mM): 72%
5-((4-(6-aminohexyl)amino)-8-((tert-butoxycarbonyl)(methyl)amino)-6-fluoro-9H-pyrimido[4,5-b]indol-2-yl)oxy)nicotinic acid												ring closure, yield after HPLC ([5]; the molecule shown is the open-chain precursor, 16-membered ring, 18.5 mM): 74%
CNc1cc(F)cc2c1[nH]c1nc(Oc3cnc4cccnc4c3)nc(N3CC4C(N)C4C3)c12 (centres unmarked) [Compound 4.035]	≤0.5	≤0.5	≤0.5	≤0.5	≤0.5	4	≤0.5	2	≤0.5	≤0.5	1	
CNc1cc(F)cc2c1[nH]c1nc(Oc3cnc4cccnc4c3)nc(N3CC4(CCC4N)C3)c12 (centres unmarked) [Compound 4.045]	≤0.5	≤0.5	≤0.5	≤0.5	≤0.5	4	≤0.5	8	≤0.5	1	2	
CNc1cc(F)cc2c1[nH]c1nc(Oc3cnc(C)nc3)nc(N3CCC4(CC4N)C3)c12 (centres unmarked) [Compound 4.066]	≤0.5	≤0.5	≤0.5	≤0.5	≤0.5	2	≤0.5	2	≤0.5	≤0.5	1	
CNc1cc(F)cc2c1[nH]c1nc(Oc3cnc(C)nc3)nc(N3CC(N)C4(CC4)C3)c12 (centres unmarked) [Compound 4.069]	≤0.5	≤0.5	≤0.5	≤0.5	≤0.5	4	≤0.5	2	≤0.5	≤0.5	2	
CNc1cc(F)cc2c1[nH]c1nc(Oc3cnc(C)nc3)nc(N3CC4C(N)C4C3)c12 (centres unmarked) [Compound 4.073]	≤0.5	≤0.5	≤0.5	≤0.5	≤0.5	4	≤0.5	2	≤0.5	≤0.5	1	
CNc1cc(F)cc2c1[nH]c1nc(Oc3cnc(C)nc3)nc(N3CC4CC(N)C4C3)c12 (centres unmarked) [Compound 4.084]	≤0.5	≤0.5	≤0.5	≤0.5	≤0.5	1	≤0.5	4	≤0.5	≤0.5	≤0.5	
CNc1cc(F)cc2c1[nH]c1nc(Oc3cnc(C)nc3)nc(N3C[C@@H]4CCN[C@@H]4C3)c12 [Compound 4.103]	≤0.5	≤0.5	≤0.5	≤0.5	≤0.5	2	≤0.5	2	≤0.5	≤0.5	1	
CNc1cc(F)cc2c1[nH]c1nc(Oc3cnc(C)nc3)nc(N3CC4(CC[C@H]4N)C3)c12 [Compound 4.105]	≤0.5	≤0.5	≤0.5	≤0.5	≤0.5	1	≤0.5	2	≤0.5	≤0.5	1	
CNc1cc(F)cc2c1[nH]c1nc(Oc3cnc(C)nc3)nc(N3CCC4(CCC4N)C3)c12 (centres unmarked) [Compound 4.117]	≤0.5	≤0.5	≤0.5	≤0.5	≤0.5	1	≤0.5	2	≤0.5	≤0.5	1	
CNc1cc(F)cc2c1[nH]c1nc(Sc3nncs3)nc(N3C[C@H]4C[C@@H]3C[C@H]4N)c12 [drawing 1754]												SA MIC [1]: <≤ 0.5; SA+ serum MIC [2]: ≤ 0.5 µg/mL; EC8 MIC [3]: ≤ 0.5 µg/mL
CCOC(=O)c1csc(Nc2nc(N3C[C@H]4C[C@@H]3C[C@H]4N)c3c(n2)[nH]c2c(NC)cc(F)cc23)n1 [drawing 1760]												SA MIC [1]: ≤ 0.5 µg/mL; SA+ serum MIC [2]: > 16 µg/mL; EC8 MIC [3]: 1 µg/mL
